Laboratory results reported in a melting point compilation (Tetko et al.; mined from patent text by program, amines drawn as free bases though some values may be those of a salt).

Row | melting point | SMILES
1 | 145 °C | CCOC(=O)C1=C(N)NC(N)=C(C(=O)OCC)C1c1ccnc2ccccc12
2 | 265 to 268 °C | COc1ccc2c(c1)S(=O)(=O)c1cc(OC(C)=O)c(OC)cc1N2
3 | 188 to 190 °C | Cc1cc(=O)n(C)c2ccc(OCCCN3CCC(NC(=O)c4ccccc4)CC3)cc12
4 | 186 to 187 °C | COc1ccc2c(c1)C(=O)Cc1c(C#N)cccc1S2
5 | 158 to 160 °C | CNc1cc(Oc2cccc(C(F)(F)F)c2)nc(C(=O)Nc2ccccc2)c1
6 | 250 to 252 °C | Cc1ccccc1C(=O)Nc1ccc(C(=O)N2CCCC(NC(=O)Cn3ccnc3)c3ccccc32)cc1 (centres undefined)
7 | 87 to 88 °C | CC(Cn1ccc(-c2ccccc2Cl)n1)C(=O)N(C)C (centres undefined)
8 | > 230 °C | COc1ccc2c(c1)CN(C(N)=O)N=C2Cc1c(Cl)cncc1Cl
9 | 55 to 56.5 °C | CSc1ccc(OCCO)cc1
10 | 121 to 124 °C | COC(=O)c1cc2sccc2nc1C(=O)OC
11 | 197 to 198 °C | COC(=O)c1sc2nc(-c3ccccc3)cnc2c1N
12 | 154 to 156 °C | Cc1cccc2c1CCC(=NO)C2(O)C(F)(F)F (centres undefined)
13 | 202 °C | Cc1ccc(C(=O)N[C@H]2CC[C@H](CCN3CCC(c4cccc5c4CCO5)CC3)CC2)cn1
14 | 140 to 142 °C | COC(=O)c1cnc(CNC(=O)c2ccccc2)c2ccccc12
15 | 152 °C | COC(=O)C1=C(C)NC(C)=C(C(=O)OCc2ccc(OC)cc2)C1c1ccccc1[N+](=O)[O-] (centres undefined)
16 | 177 to 180 °C | C#CCN1CCN(C2Cc3ccc(OC)cc3Sc3ccc(Cl)cc32)CC1 (centres undefined)
17 | 265 to 275 °C | c1ccc(COc2ccc3nc(-c4ccc(OCc5ccccc5)c(C56CC7CC(CC(C7)C5)C6)c4)[nH]c3c2)cc1
18 | 59 to 61 °C | CCCCC(=N)NC(=O)N(C)c1ccc(Cl)cc1
19 | 362 to 366 °C | NC(=O)c1nc(-c2cccc(O)c2)nc2c1[nH]c(=O)n2Cc1ccccc1
20 | 208 to 210 °C | CCNc1ncn(-c2ccccc2C)c(=O)n1
21 | 212 to 216 °C | CN(C)CCNc1ccc2c3c(nn2C)-c2ccncc2C(=O)c13
22 | 94 °C | ClCCOc1ccc2ccccc2c1
23 | 180 to 181 °C | CC#CCN(C)c1ccc(OC23CC4CC(CC(C4)C2)C3)cc1
24 | 58 to 60 °C | CCN(CC)CCNC(=O)c1cc(F)c2cc(I)ccc2n1
25 | 215 to 218 °C | CCCCN1Cc2c([nH]c3ccccc23)C1=O
26 | 105 to 106 °C | COC(=O)c1cccc(-c2cccc(Oc3cccc(Cl)c3Cl)n2)c1

Row | melting point | SMILES
27 | 81 to 82 °C | COC(=O)CN1C(=O)C(C(C)C)Sc2ccccc21 (centres undefined)
28 | 252 to 253 °C | CCOC(=O)c1cn(-c2nc3ccccc3[nH]2)cn1
29 | 236 °C | Cc1cc(-c2cccnc2)cc2ccc(=O)[nH]c12
30 | 139 to 141 °C | CCOC(=O)c1c[nH]c2nc(N3CCC(N)C3)c(F)cc2c1=O (centres undefined)
31 | 48 to 50 °C | CS(=O)(=O)OCCc1ccc(OCc2ccccc2)cc1
32 | 140 °C | CN1CCN(C(=O)COc2cc(-c3ccccc3)nc3ccccc23)CC1=O
33 | 218 °C | Cc1cc(OCc2c(-c3c(Cl)cccc3Cl)noc2C(C)C)cnc1NC(=O)c1ccc(C(=O)O)cc1
34 | 130 to 131 °C | COC(=O)c1c(C)nc2c(c1N)c1c(n2Cc2ccc(OC)cc2)CCCC1
35 | 222 to 223 °C | CCn1ncc2c3noc(-c4ccc(F)cc4)c3cnc21
36 | 170 °C | COc1cc(C(C)C)c(OC(C#N)=CNc2ccccc2)cc1I
37 | 151 to 155 °C | COc1ccc(COc2ccc(C=C3SC(=S)N(CC(=O)O)C3=O)cc2OCc2ccc(OC)cc2)cc1
38 | 243 to 244 °C | CC(C)(C)OC(=O)NCc1ccc(-n2c(-c3cccnc3N)nc3ccc(-c4cn[nH]c4)nc32)cc1
39 | 89 to 91 °C | CCCC(=O)C(=CNc1cscc1OC)C(=O)OCC
40 | 166 to 169 °C | CCOC(=O)c1cnc2c(c(C)nn2-c2ccccn2)c1O
41 | 124 to 125 °C | Cc1ccc(C2OC(=O)N(C(=O)NN3CCOCC3)C2C)cc1 (centres undefined)
42 | 82 to 85 °C | CCOC(=O)C(C)(C)Oc1ccc(C(=O)c2ccccc2)cc1
43 | 132 to 135 °C | O=C(Nc1ccc(-n2nc(C(F)(F)F)cc2C2CC2)c(F)c1)c1cccc(F)c1F
44 | 160 °C | CCOc1ccc(C2CC(C(C)(C)C)=NN2c2ccc(C(=O)O)cc2)cc1 (centres undefined)
45 | 138 °C | COc1cc2c(cc1OC)S(=O)CCC(C(=O)N1CCN(C(=O)c3cc(OC)c(OC)c(OC)c3)CC1)=C2 (centres undefined)
46 | 220 to 224 °C | CC(=O)Oc1cc(C)cc(C(=O)N[C@@H](Cc2ccccc2)[C@H](O)C(=O)O)c1C
47 | 140 to 142 °C | COc1ccc2sc(CC3(O)C4CC5CC(C4)CC3C5)nc2c1 (centres undefined)
48 | 134 to 143 °C | CN(Cc1cc2c(=O)c(C(=O)NCc3ccc(Cl)cc3)cn(C)c2s1)CC(O)c1ccc(O)cc1 (centres undefined)
49 | 176 to 180 °C | CCCCc1nc2c(n1Cc1ccc(C(=O)OC)cc1)C[C@@H](C(=O)O)N(C(=O)C(c1ccccc1)c1ccccc1)C2
50 | 180 to 182 °C | Cc1cccc(C(=O)n2c3c(c4ccccc42)CC(C(=O)O)CC3)c1 (centres undefined)
51 | 156 to 157 °C | COC(=O)c1cc(CCCc2coc3nc(N)nc(N)c23)cs1

More lines, now with the values behind:

Row | SMILES | melting point
52 | CCCN(C(=O)CCl)[C@@H]1CCc2cc3c(cc2[C@H]1O)OCC3 (relative stereo) | 65 to 70 °C
53 | Cc1cc(-c2cc(C(F)F)n3nccc3n2)ccc1Cl | 107 °C
54 | N=C(N)NN=Cc1cccc(Cl)c1I | 231 to 232 °C
55 | NC(=O)c1c(F)cccc1C(=O)O | 129 to 132 °C
56 | CCOC(=O)c1ccc(OCCCCCCCCCCCCCCCCCCCCOc2ccc(Cl)cc2)cc1 | 78 to 80 °C
57 | Cc1cc(F)ccc1-n1c(CF)nc2ccc([N+](=O)[O-])cc2c1=O | 171 to 173 °C
58 | Cc1ccc(I)c(CO)c1 | 82 to 85 °C
59 | O=c1ccn(C2CC(O)C(COC3(c4ccccc4)c4ccccc4Oc4ccccc43)O2)c(=O)[nH]1 (centres undefined) | 157 to 160 °C
60 | Nc1nc(N)c2ncn(COC(CO)CO)c2n1 | 176 to 177 °C
61 | CCCNC1=Nc2cccnc2N(CC)c2ncccc21 | 114 to 116 °C
62 | CC(C)NCC(O)c1cc(F)cc(C#N)c1 (centres undefined) | 85.5 to 86.5 °C
63 | [N-]=[N+]=NC1CC(n2cnc3c(N4CCCC4)nc(N)nc32)OC1CO (centres undefined) | 180 to 183 °C
64 | O=[N+]([O-])c1cc2c(cc1NCC(O)CO)OCO2 (centres undefined) | 120 to 121 °C
65 | C[C@@H]1CNC[C@H]2Cc3c(ncc(F)c3C=NO)N21 | 195 to 197 °C
66 | O[C@H](CCc1cccnc1)COc1ccc(-c2ccc(F)cc2)cc1 | 124 to 125 °C
67 | CCCCc1nn(-c2ccc(C(F)(F)F)cn2)cc1CCCOc1ccccc1CC(=O)O | 106 to 107 °C
68 | CCCCC(=O)OC1C=CC(OC(=O)CCCC)O1 (centres undefined) | 30 to 35 °C
69 | CNCC(O)c1ccc(CO)cc1 (centres undefined) | 80 to 81 °C
70 | O=C(O)c1cn(-c2cc([N+](=O)[O-])c(F)c(F)c2F)c2nc(Cl)c(F)cc2c1=O | 216 to 221 °C
71 | Cc1ccc(S(=O)(=O)N2N=C(c3ccccc3)CC3CC=CC32)cc1 (centres undefined) | 163 to 165 °C
72 | CCCCC1OC(=O)c2cc(NC(C)=O)c([N+](=O)[O-])cc21 (centres undefined) | 167 to 169 °C
73 | CN(C)C(=O)c1ccc([N+](=O)[O-])cc1S(N)(=O)=O | 159 to 160 °C
74 | CN(C)CCCOc1ccccc1CNc1ccccc1 | 67 to 69 °C
75 | CC1(C)CCC(C)(C)c2cc(-c3ccc(O)c(-c4ccc(C(=O)O)cc4)c3)ccc21 | 264 to 267 °C
76 | CC1=C(C)CC(C(=O)Nc2ccccc2)C(C(=O)O)C1 (centres undefined) | 155 to 156 °C
77 | COc1ccccc1CC(=N)N1CCC(=O)C(C(c2ccccc2)c2ccccc2)C1 (centres undefined) | 57 to 58 °C
78 | O=C1c2cc(Cl)ccc2COc2ccccc21 | 82 to 83 °C

Row | SMILES | melting point
79 | N#Cc1ccc(CCCCC2CC(c3cccnc3)=CC(=O)O2)cc1 (centres undefined) | 110 to 112 °C
80 | O=[N+]([O-])c1ccc(Oc2ccc(C(c3ccc(Oc4ccc([N+](=O)[O-])cc4)cc3)(C(F)(F)F)C(F)(F)F)cc2)cc1 | 150 to 152 °C
81 | O=C(O)C(O)(C(F)F)C(F)F | 72.5 to 73.5 °C
82 | O=C(C1CCCCC1)N1CC(=O)N2CCCc3ccccc3C2C1 (centres undefined) | 187 to 190 °C
83 | Cc1cccc(-c2nc3cnccc3[nH]2)c1 | 202 to 204 °C
84 | CN(C)CCC(O)c1ccc(Cl)s1 (centres undefined) | 76 to 77 °C
85 | COc1ccc(NC(=O)c2cc([N+](=O)[O-])ccc2NC(=O)CF)c(C)c1 | 237 to 239 °C
86 | O=c1[nH]c2cc(Cl)ccc2c(=O)c2sccc12 | > 280 °C
87 | O=[N+]([O-])c1cnccc1NCc1ccccc1F | 108 to 109 °C
88 | CC(=O)OC[C@H]1O[C@@H]2[C@@H](Sc3ccccc3N2C(=O)c2ccccc2)[C@@H](OC(C)=O)[C@@H]1OC(C)=O | 154 to 155 °C
89 | CC(CNC12CC3CC(CC(C3)C1)C2)N1CCN(c2ccccn2)CC1 (centres undefined) | 67 to 68 °C
90 | FC(F)(F)c1cccc(-c2nccc3nncn23)c1 | 145 to 146 °C
91 | CC(C)(C)CNc1cc(N2CCNCC2)nc(NC(C)(C)C)n1 | 120 to 124 °C
92 | Cc1ccc(Cn2cc(C(=O)C(=O)O)c3cc(-c4ccccc4)ccc32)cc1 | 195 to 196 °C
93 | CS(=O)(=O)N(Cc1cccnc1)c1ccc(F)cc1 | 112 to 113 °C
94 | C[C@H](Nc1nc(Nc2cccc(NS(C)(=O)=O)c2)nc2[nH]cnc12)c1ccccc1 | 136 to 139 °C
95 | Cc1cn(N)c2ccccc12 | 60 to 63 °C
96 | COc1cc(C(F)(F)F)cc(OC)n1 | 26 to 27 °C
97 | CC1C(S(=O)(=O)c2ccccc2)CCCC12OCCO2 (centres undefined) | 76 to 77 °C
98 | CC1(C)COC(=O)N1c1nc(-c2ccc(Cl)c(Cl)c2)cs1 | 134 to 137 °C
99 | Brc1ccn2nc(Br)nc2c1 | 183 to 184 °C
100 | Oc1ccc2c(c1)COc1c-2cc2ccc(O)cc2c1-c1ccccc1 | 225 to 227 °C
101 | O=c1ccc2c(-n3cncn3)nccc2[nH]1 | > 300 °C
102 | CC(=O)OCc1[nH]c2c(c1C)C(=O)C(N1CC1)=C(C)C2=O | 210 to 212 °C
103 | CCCc1cc(C(O)=S)cc(N)c1-c1ccccc1 | 190 to 191 °C
104 | CC1(C)C(=O)Nc2cc3[nH]c(-c4cnccn4)nc3cc21 | > 300 °C
